Experimental data published in US5045543A, “5-amino or substituted amino 1,2,3-triazoles useful as antimetastatic agents” (Merck & Co., Inc., priority 1989, dated 1991).

Tests used:
[1] = test system: PMT-6 fibroscaroma tumors; experiment: Antimetastatic activity against PMT-6 fibrosarcoma tumors in mice (metastases in lung, primary tumor weight); type: in vivo, Black Charles River female mice (C57BL-6j); conditions: for range of primary tumor weights: control 3.1-8.4 g; for average weight of the primary tumors: mice surviving >17 days, control 6.0 g; for Number of Metastases, size 0.01-0.1 mm: control 24; for Number of Metastases, size <0.01 mm: control 102; for Number of Metastases, size >0.01 mm: size range >0.01 mm (so in the source)
Description: Black Charles River female mice (C57BL-6j) were injected in the flank muscle on day 1 with a cell suspension obtained from mincing PMT-6 fibroscaroma tumors. This highly metastatic tumor produces a large number of metastases in the lung during development of the primary tumor, so that the efficacy of potential antimetastatic agents can be contrasted with their ability to inhibit primary tumor growth in the same model. The mice were in 4 groups of 6 and were dosed daily with a 0.5% methylcellulose suspension of 5-amino-1-(4-[4-chlorobenzoyl]-3,5-dichlorobenzyl)-1,2,3-triazole-4-carboxamide, the active agent, given by gavage. Fresh drug suspensions were prepared daily. The doses, in 250 μL, were 0, 100, 250, and 500 mg/kg.
The average weights of the primary tumors retrieved from mice who survived longer than 17 days were: Control 6.0 g. (3.1-8.4 g); 100 mg/kg, 2.9 g. (2.1-5.6 g.); 250 mg/kg, 3.0 g (1.3-4.6 g.); and 500 mg/kg, 3.3 g. (2.0-6.5 g.).
The lungs of the mice were sectioned at intervals throughout the entire lung after fixing in 10% formalin, and the sections stained with H&E. The metastases found ranged from micrometases of just a few cells to enormous ones that could be easily seen without a microscope.

[2] = test system: MDBK cells; experiment: Inhibition of the growth of MDBK cells; type: cell-based, Bovine; conditions: for inhibition at 1 µg/mL / inhibition at 2 µg/mL: Bos taurus, MDBK
Description: The inhibition of PRPP biosynthesis by Compound A and analogs supported the claimed use of the compounds as antiproliferative agents, since this inhibition should prevent all de novo and salvage biosynthesis of purine and pyrimidine nucleotides. […] The data from NHEK's is particularly important since it is the overproliferation of these cells that occurs in psoriasis.
In these experiments Murine keratinocyte transformed cell line PAPp26 was cultured in Dulbecco's modified Eagle's medium with 10% fetal calf serum at 37° C., 5% CO2. Each well of a 96 well plate was seeded with 2000 cells in 200 μl of each drug dilution in duplicate. A plate was stopped and fixed for each time point, stained with Giemsa and then read in a Titertek plate reader at 650 nm, and the absorbances were calibrated with known cell numbers on control plates. NHEK's were obtained from Clonetics Corporation at the secondary stage. Antiproliferative assays were done as for the murine keratinocytes. Media (KGM) without serum was supplied by Clonetics also. Normal Human Fibroblasts and MDBK cells were grown under the same conditions except that MDBK cells were grown at 41° C.

[3] = test system: a number of cell types including the Normal Human Epidermal Keratinocytes; experiment: Antiproliferative activity (general statements); type: cell-based; conditions: in vitro; Compound A at the same concentrations (1 μg/ml)
[4] = test system: rat PMN's; experiment: Eicosanoid production in rat PMN's; type: cell-based; conditions: 1 μg/ml
[5] = test system: macrophages; experiment: LTC4 and PGE2 production and lysosomal enzyme release in macrophages; type: cell-based; conditions: 1 μg/ml
[6] = test system: LTA4 hydrolase; experiment: Direct inhibition of LTA4 hydrolase; type: biochemical
[7] = test system: keratinocyte proliferation; experiment: Keratinocyte proliferation measured by metaphase arrest with colchicine; type: in vivo, pig
[8] = Toxicity / genotoxicity

Compound: NC(=O)c1nnn(Cc2cc(Cl)c(C(=O)c3ccc(Cl)cc3)c(Cl)c2)c1N [Compound A, 5-amino-1-(4-(4-chlorobenzoyl)-3,5-dichlorobenzyl)-1,2,3-triazole-4-carboxamide]
- range of primary tumor weights ([1]; 100 mg/kg by gavage daily): 2.1 to 5.6 g
- average weight of the primary tumors ([1]; 100 mg/kg by gavage daily): 2.9 g
- range of primary tumor weights ([1]; 250 mg/kg by gavage daily): 1.3 to 4.6 g
- average weight of the primary tumors ([1]; 250 mg/kg by gavage daily): 3.0 g
- range of primary tumor weights ([1]; 500 mg/kg by gavage daily): 2.0 to 6.5 g
- average weight of the primary tumors ([1]; 500 mg/kg by gavage daily): 3.3 g
- effect on the primary tumor ([1]; 100, 250, 500 mg/kg by gavage): there may be a small effect of the drug on the primary tumor
- effect on number of lung metastases ([1]; at even the lowest dose (100 mg/kg/d oral)): a large drop in the number of metastases at even the lowest dose
- antimetastatic activity ([1]; mouse, in vivo): has exhibited such antimetastatic activity
- Number of Metastases, size 0.01-0.1 mm ([1]; oral 100 mg/kg/d): 0
- Number of Metastases, size <0.01 mm ([1]; oral 100 mg/kg/d): 6
- Number of Metastases, size >0.01 mm ([1]; oral 100 mg/kg/d): 0
- Number of Metastases, size 0.01-0.1 mm ([1]; oral 250 mg/kg/d): 3
- Number of Metastases, size <0.01 mm ([1]; oral 250 mg/kg/d): 9
- Number of Metastases, size >0.01 mm ([1]; oral 250 mg/kg/d): 0
- Number of Metastases, size 0.01-0.1 mm ([1]; oral 500 mg/kg/d): 3
- Number of Metastases, size <0.01 mm ([1]; oral 500 mg/kg/d): 6
- Number of Metastases, size >0.01 mm ([1]; oral 500 mg/kg/d): 1
- MDBK growth, # Cells × 10^6 - # Cells Seeded ([2]; 1.0 μg/ml, 1 day, control 1.40): 0 × 10^6
- MDBK growth, # Cells × 10^6 - # Cells Seeded ([2]; 1.0 μg/ml, 3 days, control 4.86): 3.12 × 10^6
- MDBK growth, # Cells × 10^6 - # Cells Seeded ([2]; 2.0 μg/ml, 1 day, control 1.40): 0 × 10^6
- MDBK growth, # Cells × 10^6 - # Cells Seeded ([2]; 2.0 μg/ml, 3 days, control 4.86): 0 × 10^6
- inhibition at 1 µg/mL ([2]; 24 h, 1.0 μg/ml, 1 day): 100%
- inhibition at 2 µg/mL ([2]; 24 h, 2.0 μg/ml, 1 day): 100%
- inhibition at 1 µg/mL ([2]; 72 h, 1.0 μg/ml, 3 days): 36%
- inhibition at 2 µg/mL ([2]; 72 h, 2.0 μg/ml, 3 days): 100%
- inhibition of growth of MDBK cells ([2]; approximately 1.0 μg/ml): substantial inhibition
- antiproliferative activity [3]: antiproliferative at the same concentrations
- inhibition of 5-HETE production [4]: inhibit
- inhibition of HHT production [4]: inhibit
- inhibition of LTB4 production [4]: inhibit
- inhibition of LTC4 production [5]: inhibit
- inhibition of PGE2 production [5]: inhibit
- inhibition of lysosomal enzyme release [5]: inhibit
- direct inhibition of LTA4 hydrolase [6]: no evidence of direct inhibition
- inhibition of keratinocyte proliferation [7]: inhibits
- genotoxicity [8]: lack of toxicity or genotoxicity
- toxicity [8]: lack of toxicity or genotoxicity
